# Reference: patent US8008458B2, “Fatty acid phenolic conjugates” (Indiana University Health Inc., priority 2002, dated 2011)
# Experiments:
# Type in all cases: cell-based
# [1] = tested on: MDA-231-MB breast cancer cells; test: Induction of apoptosis, activated caspase 3 (FITC-DEVD-FMK fluorescence microscopy); conditions: 25 μM or similar concentrations, 4 hours at 37° C. (FIG. 11)
# Description: DHA and EPA conjugates of propofol are used to test their activities against MDA-231-MB breast cancer cells. Induction of apoptosis was assayed by incubating cells with DHA, EPA, or propofol alone or DHA, EPA with propofol as well as DHA-, and EPA as propofol conjugates for 4 hours at 37° C.
# [2] = tested on: breast carcinoma MDA-MB-231 cells; test: Cell adhesion assay, adherence to human vitronectin; conditions: 45 min at 37° C., compared with vehicle treated control (FIG. 13)
# Description: The cell adhesion assay was performed according to the procedure described in Deryugina, E. I., Ratnikov, B., Postnova, T. I., Rozanov, D. V., Strongin, A. Y. (2002) J. Biol. Chem. 277, 9749-9756. The cell adhesion assay was preformed using cyctomatrix of human vitronectin in a 96-well plate (Chemicon International Incorp. of Temecula, Calif.). Each well was incubated with 100 μL of breast carcinoma MDA-MB-231 cells (1×10^5 cells/ml) at 37° C. for 45 min in a CO2 incubator. Individual wells were treated with one of the following: (a) individual agents: DHA, EPA, and propofol; or (b) the combined agents: DHA and propofol, and EPA and propofol; or (c) the conjugates DHA-propofol, or EPA propofol (prepared as described above in Examples 2 and 3). After incubation, the wells were washed three times with PBS, and the adhered cells were stained with crystal violet in 10% ethanol for 5 min at room temperature. The excess stain was subsequently removed by washing the wells six times with PBS. The stained cells were dissolved in 100 microliters (μL) of solubilizing buffer (1:1 mixture of 0.1M NaH2PO4 at a pH of 4.5 in 50% ethanol) and the absorbance of each of the resulting samples was read at 540 nm. The absorbance of dye in the control (vehicle treated cells) was regarded as 100%, and the percent adherence of treated cells was calculated in comparison to that control.
# [3] = tested on: Jurkat leukemic cells; test: Jurkat leukemic cell growth and viability (WST-1 Cell Proliferation Kit); conditions: RVT alone, 10 μM, 24 hours, RPMI media containing 2% serum
# Description: In order to evaluate the anti-proliferative activity and synergism between DHA and RVT, the two compounds were added separately to cell cultures containing Jurkat leukemic cells. In a separate experiment, a mixture of DHA and RVT components were added to the Jurkat leukemic cell cultures. The results are illustrated in FIG. 8 as a bar graph. Jurkat cells (Jurkat clone E6-1 from American Type Culture Collection of Manassas, Va. (5×10^4/well)) were incubated with either DHA or RVT, or a combination as indicated in a 96-well plate for 24 hours at 37° C. using a 5% CO2 in RPMI media containing 2% serum. Cell growth and viability were determined using a WST-1 Cell Proliferation Kit (sold by Roche Molecular Biochemicals of Indianapolis, Ind.). The control was a “ethanol-treated” control group. For the results illustrated in FIG. 8, the average was taken of three separate experiments. For the combination of DHA and RVT, a student t test provided a P<0.001 relative to the “ethanol-treated” control group. […] However, when the two components were combined into a single formulation, a synergistic inhibition of Jurkat cell growth was observed. The combination of DHA (30 μM) and RVT (10 μM) inhibited cell growth by about 60%. This is indicative of a synergistic interaction between DHA and RVT on cancer cell growth. […]
# [4] = tested on: Jurkat cells; test: Jurkat leukemic cell apoptosis (YO-PRO-1 labeling, flow cytometry)
# Description: The DHA-RVT ester prepared according to Example 1 was dissolved in DMSO. This solution was used to treat Jurkat cells labeled with YO-PRO-1 (sold by Molecular Probes of Oregon), which is a green fluorescent dye used in flagging apoptotic cells. The labeled cells were analyzed using a FACStar-plus flow cytometer equipped with a water-cooled argon laser emitting at a frequency of 488 nm. Detection of the fluorescent probe was ascertained using a 530±30 band-pass filter. The data depicted in FIGS. 10a-c are illustrated in the form of a histogram. The fluorescent intensity is indicative of apoptotic expression. The unfilled histogram represents the labeled, non-treated cells (1); the filled histogram represents the treated cells (2). […] At approximately 1 μM concentration, the DHA-RVT ester induced apoptosis in approximately 50% of the Jurkat cells (FIG. 10b) while at a concentration of 0.1 μM the ester had little effect on the Jurkat cells (FIG. 10c). Concentrations of resveratrol (10 μM) plus DHA (10 μM) have no effect on Jurkat cell growth.
Compound,induction of apoptosis [1],inhibition of adherence of cancerous cells to vitronectin [2],other results
"CC/C=C\C/C=C\C/C=C\C/C=C\C/C=C\CCCC(=O)O [EPA, eicosopentenoic acid, reference compound]",not very effective,not displayed,–
"CCC=CCC=CCC=CCC=CCC=CCCCC(=O)Oc1c(C(C)C)cccc1C(C)C [EPA-propofol, 2,6-Diisopropylphenyl Eicosopentenoate]",effectively induced apoptosis,inhibition of adherence,–
"CCC=CCC=CCC=CCC=CCC=CCC=CCCC(=O)Oc1c(C(C)C)cccc1C(C)C [DHA-propofol, 2,6 Diisopropylphenyldocosa-Hexaenoate]",effectively induced apoptosis,inhibition of adherence,–
"Oc1ccc(C=Cc2cc(O)cc(O)c2)cc1 [RVT, resveratrol]",–,–,effect on Jurkat cell growth [3]: neither the DHA (up to 30 μM) nor the RVT (10 μM) alone had any significant effect
"CC(C)c1cccc(C(C)C)c1O [propofol, 2,6-diisopropylphenol, reference compound]",not very effective,not displayed,–
resveratrol ester of docosahexaenoic acid [DHA-RVT ester],–,–,effect on Jurkat cells (apoptosis) ([4]; 0.1 μM (FIG. 10c)): little effect; apoptosis of Jurkat cells ([4]; 10 μM (FIG. 10a)): apoptosis in nearly all; Jurkat cells in which apoptosis was induced ([4]; approximately 1 μM (FIG. 10b)): approximately 50%
